Test: Thermal melt stability: onset time of crosslinking, SIS-rubber based formulation
Assay type: physicochemical
Details: 160° C.
Experimental: The thermal melt stability was assessed by recording the melt viscosity during heating. Crosslinking of the sample was recorded as an increase in viscosity. Oscillatory rheological measurements were carried out using a Kinexus lab+rheometer (Malvern Instruments Ltd., UK) under isothermal (T=160° C.) conditions. Data was recorded using the corresponding software rSPACE version 1.76 (Malvern Instruments Ltd., UK). As measurement geometry, parallel plates with a diameter of 2.5 cm of the upper plate were chosen. As sample, a disc of a relief precursor with a diameter of 2.5 cm was used. Prior to measurement, any foils (e.g. the cover sheet) and mask layers were removed from the relief precursor. Measurements were carried out in oscillation single frequency mode. The frequency was set to 1 Hz. The gap between the parallel plates was set constant to the respective sample thickness. Data points were recorded every 15 s. The complex shear viscosity η* was monitored over time t. The “onset time of crosslinking” was identified as “the time when the difference quotient Δη*/Δt is ≥1 Pa, with Δt=15 s”. A higher onset time indicates a higher thermal stability and stability towards mechanical stress.
In this example, another trial formulation based on a SIS tri-block copolymer was used. […]

Row | Onset time t (Δη*/Δt ≥ 1 Pa)/min | Structure (SMILES)
1 | 16 min | Cc1cc(C(C)(C)C)c(O)c(C(C)(C)C)c1 [BHT, 2,6-di-tert-butyl-4-methylphenol, reference compound]

Test: Kneading trials at 180° C., onset of crosslinking seen as increase in torque
Assay type: physicochemical
Details: kneading at 180° C. for 60 min, SBS binder plus stabilizer
Experimental: Kneading trials were carried out using a ThermoFisher Scientifc Haake kneading device equipped with a Haake PolyLab OS RheoDrive 7 control unit, a Haake Rheomix 600 OS heating and kneading chamber with Roller Rotors R600. The torque and the sample temperature were recorded using the software PolySoft, version 2.1.0.1. For the measurement, a temperature of 180° C. was applied. The measurement was carried out for 60 min, respectively. The components were added to the kneading device as solids and were allowed to be mixed in the kneading device.
In the given sample, the amount of stabilizer was varied in the range of 0 to 1.0 parts by weight and the excess was counterbalanced by the amount of binder, respectively.
An increase in torque indicated the onset of crosslinking of the SBS-rubber due to insufficient stabilization. Without additional stabilizer, an increase in torque was observed within the first 10 min of measurement time. With BHT as stabilizer, an increase in torque was detected after 28 min of heating at 180° C. With ascorbyl palmitate, the best result was achieved, where crosslinking was observed after 50 min.

Row | Onset time t/min | Structure (SMILES)
2 | 28 min | Cc1cc(C(C)(C)C)c(O)c(C(C)(C)C)c1 [BHT, 2,6-di-tert-butyl-4-methylphenol, reference compound]

Test: Thermal melt stability: onset time of crosslinking by oscillatory rheology at 160° C., SBS-rubber based trial formulation
Assay type: physicochemical
Details: SBS-rubber based plate formulation with 1 wt % carbamate derivative, crude reaction mixture added without purification
Experimental: In the given examples, the amount of stabilizer was varied in the range of 0 to 6.5 parts by weight and the excess was counterbalanced by the amount of binder, respectively. The components were dissolved in a solvent, being toluene (also called methylbenzene) and heated under reflux to obtain a homogeneous solution (concentration in toluene: 45 wt. %).
The solution was then cast on a carrier sheet. The plate thickness was adjusted using a doctor blade with a gap of 3 mm distance to the carrier sheet (PET film with 175 μm thickness).
The solvent was allowed to evaporate at room temperature for 16 hours followed by heating at 65° C. for 4 hours. To allow digital imaging, a mask layer (ML) coated on a cover sheet (CL) was laminated on top of the relief precursor using an Excelam-Q laminator (GMP Deutschland GmbH, Germany). Lamination was carried out at a temperature of the heated roll of 110° C., a velocity of 8.8 mm/s, and at a gap of 1.5 mm. To finish the lamination, the cast plate was sandwiched between two aluminum plates and was kept at 65° C. for 3 h.
The thermal melt stability was assessed by recording the melt viscosity during heating. Crosslinking of the sample was recorded as an increase in viscosity. Oscillatory rheological measurements were carried out using a Kinexus lab+rheometer (Malvern Instruments Ltd., UK) under isothermal (T=160° C.) conditions. Data was recorded using the corresponding software rSPACE version 1.76 (Malvern Instruments Ltd., UK). […] Prior to measurement, any foils (e.g. the cover sheet) and mask layers were removed from the relief precursor. Measurements were carried out in oscillation single frequency mode. The frequency was set to 1 Hz. The gap between the parallel plates was set constant to the respective sample thickness. Data points were recorded every 15 s. The complex shear viscosity η* was monitored over time t. The “onset time of crosslinking” was identified as “the time when the difference quotient Δη*/Δt is ≥1 Pa, with Δt=15 s”. A higher onset time indicates a higher thermal stability and stability towards mechanical stress.
Reaction mixtures were used completely without purification and were simply added to the plate formulation during homogenization in toluene solution. The stoichiometric amount of the reactants was calculated in a way to obtain a concentration of 1 wt % carbamate derivative in the plate formulation, assuming full conversion of the reactants. […] The reaction was quenched with an excess ethanol (same volume as the reaction mixture) and added to the plate formulation in toluene solution. The procedure for production of the plate precursor was followed as mentioned above. The solution was cast on a carrier sheet and traces of THF/ethanol were evaporated together with toluene during the drying step of the plate precursor.

Row | Structure (SMILES) | Onset time t (Δη*/Δt ≥ 1 Pa)/min (OT)
3 | C=CC(=O)OCC(C)(COC(=O)C=C)NC(=O)OCC(OC(=O)NC(C)(COC(=O)C=C)COC(=O)C=C)C1OC(=O)C(O)=C1O (stereo not drawn) [Entry 17, 2-((8-((acryloyloxy)methyl)-3-(3,4-dihydroxy-5-oxo-2,5-dihydrofuran-2-yl)-8-methyl-6,11-dioxo-2,5,10-trioxa-7-azatridec-12-en-1-oyl)amino)-2-methylpropane-1,3-diyl diacrylate] | 6 min
4 | C[Si](C)(C)NC(=O)OCC(OC(=O)N[Si](C)(C)C)C1OC(=O)C(O)=C1O (stereo not drawn) [Entry 9, 1-(3,4-dihydroxy-5-oxo-2,5-dihydrofuran-2-yl) ethane-1,2-diyl bis((trimethylsilyl) carbamate)] | 5 min
5 | CCO[Si](CCCNC(=O)OCC(OC(=O)NCCC[Si](OCC)(OCC)OCC)C1OC(=O)C(O)=C1O)(OCC)OCC (stereo not drawn) [Entry 4, 1-(3,4-dihydroxy-5-oxo-2,5-dihydrofuran-2-yl) ethane-1,2-diyl bis((3-(triethoxysilyl)propyl) carbamate)] | 20 min
6 | O=C(Nc1ccccc1)OCC(OC(=O)Nc1ccccc1)C1OC(=O)C(O)=C1O (stereo not drawn) [Entry 3, 1-(3,4-dihydroxy-5-oxo-2,5-dihydrofuran-2-yl) ethane-1,2-diyl bis(phenylcarbamate)] | 51 min
7 | CC(C)c1ccc(NC(=O)OCC(OC(=O)Nc2ccc(C(C)C)cc2)C2OC(=O)C(O)=C2O)cc1 (stereo not drawn) [Entry 11, 1-(3,4-dihydroxy-5-oxo-2,5-dihydrofuran-2-yl) ethane-1,2-diyl bis((4-isopropylphenyl) carbamate)] | 55 min
8 | Cc1ccc(S(=O)(=O)NC(=O)OCC(OC(=O)NS(=O)(=O)c2ccc(C)cc2)C2OC(=O)C(O)=C2O)cc1 (stereo not drawn) [Entry 2, 1-(3,4-dihydroxy-5-oxo-2,5-dihydrofuran-2-yl) ethane-1,2-diyl bis(tosylcarbamate)] | 5 min
9 | O=C(NC1CCCCC1)OCC(OC(=O)NC1CCCCC1)C1OC(=O)C(O)=C1O (stereo not drawn) [Entry 8, 1-(3,4-dihydroxy-5-oxo-2,5-dihydrofuran-2-yl) ethane-1,2-diyl bis(cyclohexylcarbamate)] | 52 min
10 | C=C(C)C(=O)OCCNC(=O)OCC(OC(=O)NCCOC(=O)C(=C)C)C1OC(=O)C(O)=C1O (stereo not drawn) [Entry 6, 6-(3,4-dihydroxy-5-oxo-2,5-dihydrofuran-2-yl)-4,9-dioxo-5,8-dioxa-3,10-diazadodecane-1,12-diyl bis(2-methylacrylate)] | 33 min
11 | Cc1cccc(NC(=O)OCC(OC(=O)Nc2cccc(C)c2)C2OC(=O)C(O)=C2O)c1 (stereo not drawn) [Entry 12, 1-(3,4-dihydroxy-5-oxo-2,5-dihydrofuran-2-yl) ethane-1,2-diyl bis(m-tolylcarbamate)] | 33 min
12 | O=C(Nc1cccc2ccccc12)OCC(OC(=O)Nc1cccc2ccccc12)C1OC(=O)C(O)=C1O (stereo not drawn) [Entry 15, 1-(3,4-dihydroxy-5-oxo-2,5-dihydrofuran-2-yl) ethane-1,2-diyl bis(naphthalen-1-ylcarbamate)] | 4 min

Further lines, results first:

Row | Onset time t (Δη*/Δt ≥ 1 Pa)/min (OT) | Structure (SMILES)
13 | 34 min | CC(C)(C)NC(=O)OCC(OC(=O)NC(C)(C)C)C1OC(=O)C(O)=C1O (stereo not drawn) [Entry 5, 1-(3,4-dihydroxy-5-oxo-2,5-dihydrofuran-2-yl) ethane-1,2-diyl bis(tert-butylcarbamate)]
14 | 24 min | C=Cc1ccc(C(C)(C)NC(=O)OCC(OC(=O)NC(C)(C)c2ccc(C=C)cc2)C2OC(=O)C(O)=C2O)cc1 (stereo not drawn) [Entry 7, 1-(3,4-dihydroxy-5-oxo-2,5-dihydrofuran-2-yl) ethane-1,2-diyl bis((2-(4-vinylphenyl)propan-2-yl) carbamate)]
15 | 6 min | CCCCCCCCCCCCCCCCCCNC(=O)OCC(OC(=O)NCCCCCCCCCCCCCCCCCC)C1OC(=O)C(O)=C1O (stereo not drawn) [Entry 10, 1-(3,4-dihydroxy-5-oxo-2,5-dihydrofuran-2-yl) ethane-1,2-diyl bis(octadecylcarbamate)]
16 | 74 min | CCCCNC(=O)OCC(OC(=O)NCCCC)C1OC(=O)C(O)=C1O (stereo not drawn) [Entry 1, 1-(3,4-dihydroxy-5-oxo-2,5-dihydrofuran-2-yl) ethane-1,2-diyl bis(butylcarbamate)]
17 | 44 min | C=CCCCCCCCCCCNC(=O)OCC(OC(=O)NCCCCCCCCCCC=C)C1OC(=O)C(O)=C1O (stereo not drawn) [Entry 14, 1-(3,4-dihydroxy-5-oxo-2,5-dihydrofuran-2-yl) ethane-1,2-diyl bis(dodec-11-en-1-ylcarbamate)]
18 | 6 min | O=C(NCCc1ccccc1)OCC(OC(=O)NCCc1ccccc1)C1OC(=O)C(O)=C1O (stereo not drawn) [Entry 13, 1-(3,4-dihydroxy-5-oxo-2,5-dihydrofuran-2-yl) ethane-1,2-diyl bis(phenethylcarbamate)]

Source: patent publication US20250019520A1, “RELIEF PRECURSORS WITH ENHANCED STABILITY” (XSYS Germany GmbH, priority 2023, published 2025)
